Measured values published in patent US20250154180A1, “CRK-LIKE (CRKL) ADAPTOR PROTEIN INHIBITORS AND METHODS OF MAKING AND USING THE SAME” (Rutgers, The State University of New Jersey, priority 2022, published 2025).
“Also recorded” adds a separate entry of the source. Where a name gives a salt, the structure may show the parent alone.

Key:
[1] = test system: MDA-MB-231 cells; assay: MTT proliferation assay, MDA-MB-231; format: cell-based
Method: (§1) MTT assay—The MTT assay was used to detect cell proliferation. Briefly, cells were plated in a 96-well plate at a density of 50,000 cells/well in 200 μl of culture medium with candidate drugs to be tested (DMSO as a negative control). The treated cells were incubated for four hours a 37° C. with a 5% CO2 incubator to allow dark crystals to form at the bottom of the wells. After culturing for 48 hours, […] of MTT reagent was added to each well and mixed gently for one minute. After aspirating the culture medium from each well, 100 μl of crystal dissolving solution was added to each well and incubated for 10 minutes at RT. The signal was quantified by measuring the absorbance in each sample at 570 nm using a microplate reader.
(§2) Compound II is referred to as “NC5-SO2F” in FIGS. 7A-7C.
Cell proliferation was first determined by MTT assay as confirmation. […] CrkL is known to mediate the activation of both Raf/ERK and PI3K pathways. So, proteins that relate to these two pathways were utilized.

[2] = test system: PDAC cells BXPC3; assay: MTT assay, BXPC3; format: cell-based; conditions: 5 uM
Method: as §1, §2

[3] = test system: BXPC3 cells; assay: Propidium iodide staining, BXPC3; format: cell-based; conditions: various concentrations
Text: as §2

[4] = test system: CrkL (phosphorylation at Y207 by Ab1); assay: AlphaScreen of Ab1 phosphorylation of CrkL at Y207; format: biochemical; conditions: compared to DMSO; positive control in the five libraries
[5] = biological target: CrkL (Homo sapiens, UniProt P46109); format: biochemical
Chain of CrkL (P46109 whole entry, the tested form may be a part): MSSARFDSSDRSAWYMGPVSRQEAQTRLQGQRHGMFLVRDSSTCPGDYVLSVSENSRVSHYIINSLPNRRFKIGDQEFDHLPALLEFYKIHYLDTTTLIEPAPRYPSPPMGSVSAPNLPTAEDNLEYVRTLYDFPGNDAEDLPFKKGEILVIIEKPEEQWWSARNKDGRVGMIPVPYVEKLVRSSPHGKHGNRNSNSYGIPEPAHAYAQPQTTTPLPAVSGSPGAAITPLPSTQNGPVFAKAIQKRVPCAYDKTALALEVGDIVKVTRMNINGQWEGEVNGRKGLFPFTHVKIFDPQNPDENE
Text: Single-molecule Fluorescence Resonance Energy Transfer (smFRET)—Single-molecule Fluorescence Resonance Energy Transfer (smFRET) was applied to monitor conformations of single molecules. CrkL has two cysteines (a relatively rare amino acid), one in its SH2 and another in SH3C domains. CrkL was mixed with a mixture of equal amounts of Alexa555-maleimide and Alexa647-maleimide (Invitrogen, USA) (10× over protein concentration) to randomly label the two cysteines. The labeled protein was purified from an unreacted dye by gel filtration. Molecules with exactly one donor and acceptor are identified in single-molecule data analysis and used for further analysis. […] The FRET change between non-phosphorylated CrkL and phosphorylated CrkL was measured. The dye-labeled protein was used in in vitro kinase assays with different drugs treatments as described above. smFRET measurements were performed with a prism-type total internal refection microscope (TIRF) where FRET efficiency is calculated from measured donor and acceptor intensities (Id and Ia, respectively) by FRET=Ia/(Id+Ia), as described previously. To surface immobilize 6×His tagged CrkL, the protein was added to the biotinylated 6×His antibody (Thermo Scientific Cat #: MA1-80087) bound to streptavidin, which was adsorbed to a quartz slide. A lipid bilayer was used to passivate the quartz surface. Phosphorylation was performed on the immobilized Crk in situ.
In intramolecular smFRET, non-radiative energy transfer occurs when two fluorophores attached to different parts of one molecule move close together. […] A cysteine-maleimide-based chemistry was used to label both CrkL and mutant (non-phosphorylatable) CrkL-Y207F. CrkL has a cysteine (a relatively rare amino acid) in its SH2 (labeled with AlexaFluor555) and SH3C (labeled with AlexaFluor647). […] Western Blot (WB) and immunoprecipitation (IP) was used to verify that labeled proteins retain the same gross functional properties as wild-type CrkL (e.g., are phosphorylatable and capable of binding SH2 and SH3 ligands). Briefly, site-specific labeled CrkL was mixed with Ab1 in the presence of Mg^2+ and ATP. A single AlphaScreen-identified candidate inhibitor was then added per assay.

[6] = test system: IL-2 production from human PBMCs; assay: IL-2 ELISA, PBMCs; format: cell-based
Method: IL-2 ELISA—IL-2 in vitro enzyme-linked immunosorbent assay (ELISA) was used to measure human IL-2 productions. This assay was conducted per the user manual from the kit. In brief, human PBMCs were cultured in R10 medium with 0.5 μg/ml PHA. Then, 100 μl of the standard and sample was added to each well and incubated at 4° C. overnight. A prepared biotin antibody (100 μl) was added to each well and incubated for 1 hour at room temperature. Then, 100 μl prepared streptavidin solution was added and incubated for 45 minutes at room temperature. TMB one-step substrate reagent (100 μl) was then added to each well and incubated for 30 minutes at room temperature. Stop solution (50 μl) was then added to each well, and the results were quantified at 450 nm by Infinite M1000 Pro Plate Reader (Tecan, Switzerland) immediately.
Previous studies have shown that phosphorylated CrkL inhibits immune cell functions. It was then evaluated whether a pCrkL inhibitor could restore immune cell functions. To test this, the production of IL-2 from human PBMCs treated with different concentrations of Pomiferin was quantitated. Phytohemagglutinin (PHA) was used to stimulate the secretion of IL-2 as a positive control group. […] Similar results were obtained from the third donor (FIG. 5B, lower panel).

[7] = Mouse toxicity assays (serum ALT, AST, BUN, creatinine); format: in vivo, mice; conditions: at the indicated dosages
Method: Three mice were treated in each group. Blood samples were collected from every mouse in pre-treatment and post-treatment (20 days), and serum was obtained for alanine aminotransferase (ALT, SGPT, FIG. 12A), aspartate aminotransferase (AST, SGOT, FIG. 12B), blood urea nitrogen (BUN, FIG. 12C), and creatinine (FIG. 12D) tests to monitor liver and kidney toxicity. The normal Reference Ranges for ALT is 17-77 IU/L; AST is 54-298 IU/L; BUN is 18.5-33.3 mg/dL; Cr is 0-0.40 mg/dL.
Mouse toxicity assays—Blood was collected from the submandibular facial vein following IACUC guidelines (CMP, Houston Methodist Research Institute and Rutgers University) before and 20-day after the drug treatment. The Department of Veterinary Medicine & Surgery, MD Anderson Cancer Center, performed the clinical biochemistry and pharmacokinetics tests. Blood serum chemistry analysis included alanine transaminase (ALT), aspartate transaminase (AST), blood urea nitrogen (BUN), and creatinine level measurements.
Alanine aminotransferase (ALT, SGPT), aspartate aminotransferase (AST, SGOT), blood urea nitrogen (BUN), and creatinine levels were examined to determine liver and kidney toxicity of Pomiferin treatments in vivo. […] Nevertheless, these changes have no physiological significance because ALT, AST and BUN levels in all mice were within normal mouse reference ranges. […]

Question: Which “toxicity compared with NC5 (MTT viability)” value ([1]; 5 μM) does the source give for `CC(C)=CCc1c2c(c3occ(-c4ccc5c(c4)OS(=O)(=O)O5)c(=O)c3c1OS(=O)(=O)F)C=CC(C)(C)O2` [Compound II] here?
Answer: increased toxicity

Question: What about the “killing effect compared with NC5 (MTT)” value ([1]; different concentrations) of the same molecule?
Answer: comparable killing effect as NC5

Question: What about the “killing effect / toxicity compared with NC5 (MTT)” value [2] of the same molecule?
Answer: stronger killing effect than NC5; also recorded: increased toxicity

Question: What about the “killing effect by propidium iodide staining” value [3] of the same molecule?
Answer: killing effect was further confirmed

Question: What does the source list for `Cc1ccc(NC(=O)c2ccc(CN3CCN(C)CC3)cc2)cc1Nc1nccc(-c2cccnc2)n1` [Gleevec, imatinib mesylate]?
Answer: Alpha signal decrease [4]: 80-90%; inhibition of the higher FRET caused by Ab1 (pCrkL) ([5]; CrkL + Ab1, Mg2+ and ATP): inhibited; FRET signal ([5]; CrkL about 0.4, CrkL+Ab1 about 0.6): 0.4; IL2 secretion ([6]; PBMCs from three healthy donors, treated overnight): did not inhibit IL2 secretion; IL-2 production ([6]; first donor, compared to DMSO): decreased IL-2 production; damage to the liver and kidneys [7]: little to no damage to the liver and kidneys
